Entries after “also recorded” stand apart in the source; their conditions may differ.

One data set deals with HeLa-ACE2 cells. Description: SARS2-PsV-induced multinucleated cell formation. The format is cell-based. The settings on record: SARS2-PsV 30 min.
Data set [1] concerns HEK 293T-ACE2-TMPRSS2 cells. The format is cell-based. The conditions noted are these: 10 μM, ATP 100 μM.
The test system of a further data set is Calu-3 cells. Description: Cell viability MTS assay, Calu-3 cells. The settings on record: Calu-3 and Vero cells. The format is cell-based, human. On the technique in general: Tetrazolium dyes change colour on reduction, which living cells bring about.
For data set [2], the system named is HEK 293T-ACE2-TMPRSS2 cells. The experiment in a line: SARS2-PsV-induced cytosolic Ca2+ signals. The format is cell-based. The conditions noted are these: pretreatment: BAPTA-AM 3 μM, camostat 10 μM, A6-001 10 μM.
In a further data set the test system is SARS-CoV-2. The experiment in a line: Viral replication of authentic SARS-CoV-2 in Calu-3 cells. The format is cell-based.
In data set [3] the test system is CHO-Spike / HEK 293T-ACE2-TMPRSS2 cells. The format is cell-based. The conditions noted are these: 10 μM.
The test system of data set [4] is recombinant eGFP adenovirus (Ad-eGFP). The experiment in a line: Adenovirus. The format is cell-based. The settings on record: 10 μM; 1 MOI; 48 h; HEK 293T.

Usually IC50 stands for the point on the concentration scale where inhibition reaches its midpoint. Consider `O=C(NCc1ccc(F)cc1)c1cccc(Nc2ccc(-c3ccccc3)nn2)c1` [A6-001, N-(4-fluorobenzyl)-3-((6-phenylpyridazin-3-yl)amino)benzamide], for which the multinucleated cell formation result with HeLa-ACE2 cells is reported as “inhibits; also recorded: significantly reduced”. The “purinergic agonist (ATP)-induced Ca2+ response” value in data set [1] was “did not alter”. The safety margin with Calu-3 cells is above 100. Also, in data set [2], the “SARS2-PsV-induced cytosolic Ca2+ signals” value is on record as “did not affect”. Besides, in the data set with SARS-CoV-2 (10 μM, 48 h, […], Calu-3), the “viral reduction, qPCR” value is 1/50 and the ΔCt is reported as −13.5. Also, the IC50 in the data set with SARS-CoV-2 (Severe acute respiratory syndrome coronavirus 2, Calu-3, 48 h, read-out: IC50, viral replication) was 970 nM. Further, the membrane-fusion events entry in data set [3] (8-h time-lapse) is recorded as “abolishes; also recorded: profoundly reduced”. The “initial lipid-mixing event and cell-cell fusion” value in data set [3] (Video S3) is “eliminated”. For the same compound, the cell-cell adhesion entry in data set [3] (initial 1 h) was “does not affect; also recorded: not affecting”. For the same compound, in data set [4], the “replications of the non-enveloped adenovirus” value was “did not affect”.

Source of the values: paper PMC9250890 (Cell Reports, 2022).
